Common to all, as to assay: in vitro
Data set [1] concerns the target T1, CYP2B6 (Homo sapiens, UniProt P20813).
T1 sequence (P20813 1-491): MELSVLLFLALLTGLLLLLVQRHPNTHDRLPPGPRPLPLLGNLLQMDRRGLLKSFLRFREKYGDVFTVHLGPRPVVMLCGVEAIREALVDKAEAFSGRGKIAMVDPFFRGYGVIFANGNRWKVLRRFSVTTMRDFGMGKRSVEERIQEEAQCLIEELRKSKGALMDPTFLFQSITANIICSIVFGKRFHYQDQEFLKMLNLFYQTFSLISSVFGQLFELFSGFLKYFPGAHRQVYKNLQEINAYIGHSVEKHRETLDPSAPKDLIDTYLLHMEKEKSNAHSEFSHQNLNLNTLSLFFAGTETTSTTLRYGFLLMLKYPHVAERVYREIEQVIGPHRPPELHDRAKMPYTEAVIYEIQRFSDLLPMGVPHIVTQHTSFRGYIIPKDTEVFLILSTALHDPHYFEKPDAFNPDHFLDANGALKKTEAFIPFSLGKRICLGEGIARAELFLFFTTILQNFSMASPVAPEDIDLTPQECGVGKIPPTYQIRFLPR
The procedure: (§1) The CYP reaction was initiated by adding a CYP probe substrate and incubating at 37° C. for 10-20 minutes, depending on the individual CYP isoform. The reaction was terminated with the addition of 400 μL ice-cold acetonitrile (ACN). […] Positive controls were performed in parallel using a known inhibitor of the individual CYP isoform. […] The samples were then transferred to 96-well plates and analyzed by LC-MS/MS (Appendix 1).

In data set [2] the target is CYP1A2 (Homo sapiens, UniProt P05177). The procedure: as §1
Data set [3] has as its system CYP3A. Here is the method:
as §1

SMILES strings stand for the structures.

Sequence of CYP1A2 (P05177 whole entry): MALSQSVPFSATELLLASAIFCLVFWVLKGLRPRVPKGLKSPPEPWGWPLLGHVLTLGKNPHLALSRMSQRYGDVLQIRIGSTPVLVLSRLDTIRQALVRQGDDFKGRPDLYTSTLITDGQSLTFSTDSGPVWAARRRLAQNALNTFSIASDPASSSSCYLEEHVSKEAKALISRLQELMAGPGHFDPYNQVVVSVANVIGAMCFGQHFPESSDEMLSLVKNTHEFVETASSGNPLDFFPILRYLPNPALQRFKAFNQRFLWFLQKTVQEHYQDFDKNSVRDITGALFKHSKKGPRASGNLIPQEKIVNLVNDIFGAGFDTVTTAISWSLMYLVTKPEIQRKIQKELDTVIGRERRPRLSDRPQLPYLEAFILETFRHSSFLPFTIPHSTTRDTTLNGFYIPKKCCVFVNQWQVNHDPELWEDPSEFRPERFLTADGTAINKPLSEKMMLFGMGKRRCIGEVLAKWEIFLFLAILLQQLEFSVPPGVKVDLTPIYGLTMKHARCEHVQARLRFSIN

On to `CCC1(O)C(=O)OCc2c1cc1n(c2=O)Cc2cc3cc4c(cc3nc2-1)OCO4` (stereo not drawn) [FL118], for which, in data set [1] (1 μM), the CYP2B6 inhibition result is recorded as “does not inhibit these 3 CYP isoforms”. Also, the inhibition at 1 µM in data set [1] (human, microsomes, pH 7.4) is 0%; in data set [2] (human, microsomes, pH 7.4), 0.1%; in data set [3] (human, microsomes, pH 7.4), 0%. Besides, the CYP1A2 inhibition result in data set [2] (1 μM) is listed as “does not inhibit these 3 CYP isoforms”. Also, in data set [3] (1 μM, testosterone probe), the CYP3A inhibition entry is reported as “does not inhibit these 3 CYP isoforms”.

As a reminder, the inhibition is the relative decrease from the control value, in per cent.
